Test results: PMC9952374, “De Novo Design of Imidazopyridine-Tethered Pyrazolines That Target Phosphorylation of STAT3 in Human Breast Cancer Cells” (Bioengineering, 2023)

Key:
MCF-10A cells = assay: Alamar Blue cell viability assay, normal MCF-10A; assay type: cell-based; conditions: normal MCF-10A cell viability
BT-474 cells = assay: Alamar Blue cell viability assay, BT-474; assay type: cell-based, human; conditions: BT-474 cell viability, Alamar Blue
Text: (§1) The goal herein was to assess the ability of imidazopyridine-tethered pyrazolines to inhibit cell viability in mammary carcinoma cells (using the Alamar Blue assay), since pyridine-fused pyrazoles were previously shown to inhibit cell viability in various breast cancer cells. […] The low chemical stability of thio-urea-based compounds may account for the inactivity of most thiourea-conjugated pyrazolines (excluding 4g) against TNBC cells.
(§2) MCF-7 cells were procured from Procell Life Science and Technology Co. LTD, Wuhan, China. Human breast cancer T47D, BT474, and SK-BR-3 cells were obtained from American Type Culture Collection (Washington, DC, NW, USA). Cells (2000) were cultured in MEM or Leibovitz’s L-15 medium enriched with 2% FBS and maintained in a humidified atmosphere of 5% CO2 at 37 °C. A stock solution of DMSO-dissolved compounds was prepared, and this solution was diluted with culture medium as required. MCF-7 Cells (4 × 10^3) were cultured in 96-well plates for 12 h and then treated for 72 h with compounds at concentrations of […]. Using Alamar Blue, the compounds were evaluated for their inhibitory effects

SK-BR-3 cells = assay: Alamar Blue cell viability assay, SK-BR-3; assay type: cell-based, human; conditions: SK-BR-3 cell viability
Text: as §1, §2

MCF-7 cells = assay: Alamar Blue cell viability assay, MCF-7; assay type: cell-based, human; conditions: MCF-7 cell viability
Text: as §1, §2
Figure 2 Inhibitory effect of compounds 3f (A), 3e (B), 4g (C), and 3g (D) on the viability of MCF-7 cells. MCF-7 cells were treated with various concentrations of 2-pyrazolines for 72 h and the viability of cells was analyzed by Alamar Blue assays. The results are presented as mean ± S.E.M. of triplicate determinations.

T47D cells = assay: Alamar Blue cell viability assay, T47D; assay type: cell-based, human; conditions: T47D cell viability, Alamar Blue
Text: as §1, §2

TNBC cells = assay: Effect against TNBC cells; assay type: cell-based; conditions: in words
Text: as §1

Compound	IC50 (MCF-10A cells; Homo sapiens) [µM]	IC50 (BT-474 cells; Homo sapiens) [µM]	IC50 (SK-BR-3 cells; Homo sapiens) [µM]	melting point [°C]	IC50 (MCF-7 cells; Homo sapiens, MCF7, 72 h) [µM]	IC50 (T47D cells; Homo sapiens) [µM]	IC50 (MCF-10A cells) [µM]	IC50 (BT-474 cells) [µM]	IC50 (SK-BR-3 cells) [µM]	IC50 (MCF-7 cells; 72 h) [µM]	IC50 (T47D cells) [µM]	effect against TNBC cells (TNBC cells)
Cc1ccc2nc(C)c(C3=NN(C(=O)CN4CCN(c5ccc(Cl)cc5F)CC4)C(c4cccc([N+](=O)[O-])c4)C3)n2c1 (centres unmarked) [Compound 3g, 2-(4-(4-Chloro-2-fluorophenyl)piperazin-1-yl)-1-(3-(2,6-dimethylimidazo[1,2-a]pyridin-3-yl)-5-(3-nitrophenyl)-4,5-dihydro-1H-pyrazol-1-yl)ethanone]	8.69 ± 0.69	63.2 ± 1.75	100 ± 1.98	196 to 198	19.4 ± 1.29	86.5 ± 1.95						
Cc1ccc2nc(C)c(C3=NN(C(=O)CN4CCN(c5ccc(Cl)cc5)CC4)C(c4cccc([N+](=O)[O-])c4)C3)n2c1 (centres unmarked) [Compound 3e, 2-(4-(4-Chlorophenyl)piperazin-1-yl)-1-(3-(2,6-dimethylimidazo[1,2-a]pyridin-3-yl)-5-(3-nitrophenyl)-4,5-dihydro-1H-pyrazol-1-yl)ethanone]	38.3 ± 1.44	17.6 ± 0.87	39.1 ± 1.46	180 to 182	13.2 ± 1.12	29.9 ± 1.05						
CC(=O)N1CCN(CC(=O)N2N=C(c3c(C)nc4ccc(C)cn34)CC2c2cccc([N+](=O)[O-])c2)CC1 (centres unmarked) [Compound 3d, 2-(4-Acetylpiperazin-1-yl)-1-(3-(2,6-dimethylimidazo[1,2-a]pyridin-3-yl)-5-(3-nitrophenyl)-4,5-dihydro-1H-pyrazol-1-yl)ethanone]	> 100	8.04 ± 0.47	32.1 ± 1.46	208 to 210	21 ± 1.32	> 100						
Cc1ccc2nc(C)c(C3=NN(C(=S)Nc4cccc(Cl)c4)C(c4cccc([N+](=O)[O-])c4)C3)n2c1 (centres unmarked) [Compound 4e, N-(3-Chlorophenyl)-3-(2,6-dimethylimidazo[1,2-a]pyridin-3-yl)-5-(3-nitrophenyl)-4,5-dihydro-1H-pyrazoline-1-carbothioamide]							> 100	> 100	> 100	> 100	> 100	
Cc1ccc2nc(C)c(C3=NN(C(=S)Nc4ccc([N+](=O)[O-])cc4)C(c4cccc([N+](=O)[O-])c4)C3)n2c1 (centres unmarked) [Compound 4b, 3-(2,6-Dimethylimidazo[1,2-a]pyridin-3-yl)-5-(3-nitrophenyl)-N-(4-nitrophenyl)-4,5-dihydro-1H-pyrazole-1-carbothioamide]	> 100	7.26 ± 0.54	69 ± 1.41	230 to 232	65.4 ± 1.82	45.6 ± 1.43						significant effect
Cc1ccc2nc(C)c(C3=NN(C(=S)NC4CCCCC4)C(c4cccc([N+](=O)[O-])c4)C3)n2c1 (centres unmarked) [Compound 4c, N-Cyclohexyl-3-(2,6-dimethylimidazo[1,2-a]pyridin-3-yl)-5-(3-nitrophenyl)-4,5-dihydro-1H-pyrazoline-1-carbothioamide]							> 100	52.8 ± 1.54	> 100	46.1 ± 1.66	> 100	
Cc1ccc2nc(C)c(C3=NN(C(=O)CN4CCN(C(=O)OC(C)(C)C)CC4)C(c4cccc([N+](=O)[O-])c4)C3)n2c1 (centres unmarked) [Compound 3b, Tert-butyl-4-(2-(3-(2,6-dimethylimidazo[1,2-a]pyridin-3-yl)-5-(3-nitrophenyl)-4,5-dihydro-1H-pyrazol-1-yl)-2-oxoethyl)piperazine-1-carboxylate]	> 100	21.3 ± 1.32	28.3 ± 1.34	166 to 168	22.3 ± 1.35	15.2 ± 1.13						
N-(4-Chlorophenyl)-3-(2,6-dimethylimidazo[1,2-a]pyridin-3-yl)-5-(3-nitrophenyl)-4,5-dihydro-1H-pyrazoline-1-carbothioamide [Compound 4d]							> 100	> 100	> 100	> 100	> 100	
N-Butyl-3-(2,6-dimethylimidazo[1,2-a]pyridin-3-yl)-5-(3-nitrophenyl)-4,5-dihydro-1H-pyrazoline-1-carbothioamide [Compound 4h]							90.6 ± 1.98	> 100	> 100	> 100	54.4 ± 1.68	
CC(=O)N1N=C(c2c(C)nc3ccc(C)cn23)CC1c1cccc([N+](=O)[O-])c1 (centres unmarked) [Compound 2, 1-(3-(2,6-Dimethylimidazo[1,2-a]pyridin-3-yl)-5-(3-nitrophenyl)-4,5-dihydro-1H-pyrazol-1-yl)ethanone]	> 100	97.8 ± 1.76	> 100	166 to 168	> 100	> 100						
Cc1ccc2nc(C)c(C3=NN(C(=S)Nc4ccccc4)C(c4cccc([N+](=O)[O-])c4)C3)n2c1 (centres unmarked) [Compound 4a, 3-(2,6-Dimethylimidazo[1,2-a]pyridin-3-yl)-5-(3-nitrophenyl)-N-phenyl-4,5-dihydro-1H-pyrazoline-1-carbothioamide]							> 100	> 100	> 100	81.4 ± 1.91	> 100	
Cc1ccc(NC(=S)N2N=C(c3c(C)nc4ccc(C)cn34)CC2c2cccc([N+](=O)[O-])c2)cc1 (centres unmarked) [Compound 4f, 3-(2,6-Dimethylimidazo[1,2-a]pyridin-3-yl)-5-(3-nitrophenyl)-N-(p-tolyl)-4,5-dihydro-1H-pyrazoline-1-carbothioamide]							> 100	> 100	> 100	56.9 ± 1.39	> 100	
Cc1ccc2nc(C)c(C3=NN(C(=O)CN4CCNCC4)C(c4cccc([N+](=O)[O-])c4)C3)n2c1 (centres unmarked) [Compound 3c, 1-(3-(2,6-Dimethylimidazo[1,2-a]pyridin-3-yl)-5-(3-nitrophenyl)-4,5-dihydro-1H-pyrazol-1-yl)-2-(piperazin-1-yl)ethanone]	> 100	26.8 ± 1.37	95.2 ± 1.79	176 to 178	29.3 ± 1.47	40 ± 1.49						
Cc1ccc2nc(C)c(C3=NN(C(=O)CN4CCN(c5ccc(F)c(F)c5)CC4)C(c4cccc([N+](=O)[O-])c4)C3)n2c1 (centres unmarked) [Compound 3h, 2-(4-(3,4-Difluorophenyl)piperazin-1-yl)-1-(3-(2,6-dimethylimidazo[1,2-a]pyridin-3-yl)-5-(3-nitrophenyl)-4,5-dihydro-1H-pyrazol-1-yl)ethanone]	6.27 ± 0.26	3.06 ± 0.32	38.8 ± 1.42	192 to 194	19.6 ± 1.29	12.5 ± 1.01						significant effect
Cc1ccc2nc(C)c(C3=NN(C(=O)CN4CCC(=O)CC4)C(c4cccc([N+](=O)[O-])c4)C3)n2c1 (centres unmarked) [Compound 3a, 1-(2-(3-(2,6-Dimethylimidazo[1,2-a]pyridin-3-yl)-5-(3-nitrophenyl)-4,5-dihydro-1H-pyrazol-1-yl)-2-oxoethyl)piperidin-4-one]	> 100	4.11 ± 0.41	> 100	170 to 172	22.8 ± 1.36	23.3 ± 1.28						
Cc1ccc2nc(C)c(C3=NN(C(=O)CN4CCN(c5ccccc5F)CC4)C(c4cccc([N+](=O)[O-])c4)C3)n2c1 (centres unmarked) [Compound 3i, 1-(3-(2,6-Dimethylimidazo[1,2-a]pyridin-3-yl)-5-(3-nitrophenyl)-4,5-dihydro-1H-pyrazol-1-yl)-2-(4-(2-fluorophenyl)piperazin-1-yl)ethanone]	> 100	> 100	> 100	160 to 162	63.7 ± 1.8	> 100						
Cc1ccc2nc(C)c(C3=NN(C(=S)Nc4cc(C(F)(F)F)cc(C(F)(F)F)c4)[C@@H](c4cccc([N+](=O)[O-])c4)C3)n2c1 [Compound 4g, N-(3,5-Bis(trifluoromethyl)phenyl)-3-(2,6-dimethylimidazo[1,2-a]pyridin-3-yl)-5-(3-nitrophenyl)-4,5-dihydro-1H-pyrazoline-1-carbothioamide]	> 100	> 100	> 100	230 to 232	10.9 ± 1.01	> 100						
